# Measured values reported in US8512681B2 (GUMLINK A/S, priority 2005, dated 2013).
# Tested on: plaque
# Details: in chewing gum
smiles,measurement,value
CC(=O)[O-].CC(=O)[O-].[Zn+2] [zinc acetate],effect on plaque in hard-to-reach places (in words),worked in the “hard-to-reach” places with high efficiency
